# Assay results as given in PubChem BioAssay AID463206 (Broad Institute, 2010).
# The source made the active and inactive calls.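 The calls were made as follows: active = caspase luminescence falls with dose and the half-maximal concentration AC50 from the fitted curve is at or below a set limit; inconclusive = flat fit at 30 to 70% signal loss, or invalid fit; inactive = AC50 above the limit, or signal rises instead.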
# Test system: INS-1E cytokine-induced caspase-3/7, Caspase-Glo luminescence, 48 h
# Assay: suppression of cytokine-driven beta-cell apoptosis – INS-1E rat cells, luminescence, orthogonal assay for beta-cell apoptosis protection project, dose response (AID 463206)
row,SMILES,AC50
1,CCOC(=O)c1sc(NC(=O)c2c(C)nn(Cc3ccccc3)c2C)cc1C,> 26 µM (inactive)
2,COc1cccc(Cn2c(NCc3ccco3)nc3c2c(=O)n(C)c(=O)n3C)c1,> 26 µM (inactive)
3,Cc1ccc(S(=O)(=O)N2CCN(c3ncnc4ccccc34)CC2)cc1,> 26 µM (inactive)
4,COc1cccc(N=Nc2ccc3cccnc3c2O)c1,> 26 µM (inactive)
5,CCN1CCN(CCCNC(=O)c2ccc3c(c2)NC(=O)/C(=C\c2cccc(C)c2)S3)CC1,10.3 µM
6,Cc1ccc(C2(c3ccc(C)cc3)CC2C(=O)Nc2ccc([N+](=O)[O-])cc2O)cc1 (stereo not drawn),> 26 µM (inactive)
7,COc1ccc(O)c(/C=N/Nc2nc(Nc3ccccc3)nc(-n3nc(C)cc3C)n2)c1,> 26 µM (inactive)
8,CC(C)(C)OC(=O)NCc1ccc(NC(=O)c2nc[nH]c2C(=O)NCCNC(=O)c2[nH]cnc2C(=O)Nc2ccc(CNC(=O)OC(C)(C)C)cc2)cc1,> 26 µM (inactive)
9,C[n+]1c2n(c3ccccc31)N=C(c1ccc(-c3ccccc3)cc1)CS2,> 26 µM (inactive)
10,Cc1sc2ncnc(NCC(O)c3ccc([N+](=O)[O-])cc3)c2c1C (stereo not drawn),> 26 µM (inactive)
11,O=C(N/N=C(\c1ccccc1)c1ccccn1)c1cccc([N+](=O)[O-])c1,> 26 µM (inactive)
12,CN(Cc1c(F)cccc1Cl)C(=O)c1cc2ccccc2o1,> 26 µM (inactive)
13,Cc1ccc(NC(=O)c2c(C(F)(F)F)nn(C)c2SCc2cccc(C(F)(F)F)c2)cc1C,> 26 µM (inactive)
14,Cc1nc2cc(-c3ccccc3)sc2c(=O)n1N,> 26 µM (inactive)
15,O=C(CN(Cc1ccco1)Cc1ccco1)Nc1cc(S(=O)(=O)N2CCCCC2)ccc1Cl,> 26 µM (inactive)
16,CC(=O)Nc1ccc(S(=O)(=O)NC2=C(N3CCN(C)CC3)C(=O)c3ccccc3C2=O)cc1,> 26 µM (inactive)
17,Cc1ccccc1NC(=S)Nc1cccc2cnccc12,> 26 µM (inactive)
18,CCCCc1ccc(N/C(N)=N/c2nc(C)cc(C)n2)cc1,> 26 µM (inactive)
19,Cn1c(=O)[nH]c(=O)c2c1nc(N1CCN(C(c3ccccc3)c3ccccc3)CC1)n2CCO,> 26 µM (inactive)
20,O=c1c2c(nc3c(-c4ccc(Cl)cc4)c[nH]n13)CCCC2,> 26 µM (inactive)
21,O=C1C(=O)c2c(C(=O)c3ccccc3)coc2-c2ccccc21,> 26 µM (inactive)
22,CCCCCCCCCCCCCCCC[N+](C)(C)CC,> 26 µM (inactive)
23,Cc1cc(=O)[nH]c(N/N=C/c2ccccn2)n1,> 26 µM (inactive)
24,CCN(CC)S(=O)(=O)c1ccc(N2CCN(c3ccccc3OC)CC2)c(N)c1,> 26 µM (inactive)

row,SMILES,AC50
1,COc1ccc(Cl)c(Cn2c(NCc3ccco3)nc3c2c(=O)n(C)c(=O)n3C)c1,> 26 µM (inactive)
2,COc1ccc(S(=O)(=O)Nc2ccc(O)c3ccccc23)cc1,> 26 µM (inactive)
3,CCCCCCCCCCOC(=O)Cn1c(COc2cccc(OC)c2)[n+](C)c2ccccc21,> 26 µM (inactive)
4,COc1ccc2c(c1OC)C(=O)OC2Nc1nc(-c2ccccc2)cs1 (stereo not drawn),16.1 µM
5,Nc1nc(-c2ccccn2)nc(N)c1Cc1ccc(Cl)cc1Cl,> 26 µM (inactive)
6,Cc1nn(C)c(C)c1CN(Cc1nc(CCC(C)C)no1)C(C)C,> 26 µM (inactive)
7,Cc1ccc(NC(=S)N/N=C/c2ccc([N+](=O)[O-])s2)cc1,> 26 µM (inactive)
8,CCS(=O)(=O)c1ncc(Cl)c(C(=O)Nc2ccc(S(=O)(=O)N(C)c3ccccc3)cc2)n1,> 26 µM (inactive)
9,COc1cccc(/C=N/NC(=O)CNC(=O)c2cccs2)c1O,> 26 µM (inactive)
10,Cc1cc(-c2ccccc2)n(-c2cc(N/N=C/c3ccccc3O)ncn2)n1,> 26 µM (inactive)
11,COc1ccc(C(NC(C)=O)c2cc(Cl)c3cccnc3c2O)cc1OC (stereo not drawn),> 26 µM (inactive)
12,Cc1ccc(C(C)C)c(OCc2ccc(C(=O)N/N=C/c3ccc(O)cc3O)cc2)c1,> 26 µM (inactive)
13,Cc1ccccc1-[n+]1c(-c2ccccc2)cc(-c2ccccc2)cc1-c1ccccc1,> 26 µM (inactive)
14,Cc1cc(C(=O)N/N=C/c2cc(Br)ccc2OC(=O)c2ccccc2)n[nH]1,> 26 µM (inactive)
15,C/C(=N\NC(=O)c1ccc(Cl)cc1)c1ccccn1,> 26 µM (inactive)
16,CC1=C(C)/C(=N\OS(=O)(=O)c2ccccc2)C=CC1=O,> 26 µM (inactive)
17,CC1CCN(c2ccc(NC(=O)c3ccc([N+](=O)[O-])o3)cc2)CC1,> 26 µM (inactive)
18,CCN(CC)S(=O)(=O)c1ccc(Cl)c(C(=O)Nc2ccc(Cl)cc2[N+](=O)[O-])c1,> 26 µM (inactive)
19,CN1N=C(C(C)(C)C)CSC1=Nc1ccccc1,> 26 µM (inactive)
20,Cc1cccc(C)c1NC(=O)CNC(=O)c1c(C)nn(C)c1Cl,> 26 µM (inactive)
21,Cc1c(C)c2cccnc2c2ncccc12,> 26 µM (inactive)
22,O=S1(=O)CCN(Cc2csc(-c3cccs3)n2)CC1,> 26 µM (inactive)
23,C=CCN1C(=O)N/C(=C/c2ccc(N3CCOCC3)o2)C1=O,> 12 µM (inactive)
24,COc1ccc(C(=O)/C(=C\c2ccco2)N2C=CC=CC2=C(C#N)C#N)cc1,> 26 µM (inactive)
